Values joined by “and” are separate entries in the source; they are usually repeats but may differ in a detail not shown here. Equal entries are not always repeated.
What was measured:
[1] = system: elastase; assay: Elastase inhibition assay (MeOSuc-AAPV-AMC cleavage); assay type: biochemical; conditions: porcine elastase; estimated
Experimental: Assays for assessing inhibition of elastase a c t i vit y (from porcine pancreas; Sigm a-Aldrich E7885) were based on c leavage of the fluorogenic peptide substrate MeOSuc-AAPV-AMC (Sigm a- Aldrich […]
324740). Elastase was dissolved in 1 m M HCl, 2 m M CaCl2 to produce a stock solutio n of 1 mg/ml […]
(38.6 µM). F or inhibition as says , 100 µl of 1 µg/m l (38.6 nM) elastase in 25 m M T ris -HCl pH 8.2, […]
15 m M CaC l2 was d ispense d into we lls of whit e 9 6- we ll m icrowe ll p lates (Nunc), and pre- incubated […]
for 5 m in wi th com pound 3j at concentr ations ranging from 0-20 µM before addition of substrate […]
(10 µM f inal). F luorescence increase was m onitored continuousl y with tim e as above. PMSF was used as a positive inh ib itor control as above. All m easurem ents were perform ed in duplicate.

[2] = target: rPfSUB1 (Plasmodium falciparum, UniProt Q8I0V0); assay: Progress curve kinetic analysis of rPfSUB1 inhibition
rPfSUB1, sequence (Q8I0V0 218-688): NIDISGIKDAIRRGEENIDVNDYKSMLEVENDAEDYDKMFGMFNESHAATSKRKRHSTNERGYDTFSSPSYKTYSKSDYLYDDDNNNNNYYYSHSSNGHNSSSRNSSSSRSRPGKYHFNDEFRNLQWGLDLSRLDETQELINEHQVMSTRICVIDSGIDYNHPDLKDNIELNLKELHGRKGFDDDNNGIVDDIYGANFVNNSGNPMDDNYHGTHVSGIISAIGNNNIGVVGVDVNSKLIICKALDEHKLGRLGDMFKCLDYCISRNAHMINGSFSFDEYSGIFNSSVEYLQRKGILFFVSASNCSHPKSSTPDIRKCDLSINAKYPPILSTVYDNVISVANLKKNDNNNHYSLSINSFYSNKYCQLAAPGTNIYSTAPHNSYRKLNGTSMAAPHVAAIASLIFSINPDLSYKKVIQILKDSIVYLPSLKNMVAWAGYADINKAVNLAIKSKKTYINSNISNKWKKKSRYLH
Excerpt: Boronic acids form reversible covalent bonds with serine and threonine proteases ([26]). Inhibition is generally time dependent, and the covalent nature of the binding can result in relatively long target occupancy times despite the reversibility of the bond. […] To analyze the kinetic characteristics of the interaction between 3j and rPfSUB1, we used progress curve analysis to continuously monitor rPfSUB1-mediated cleavage of a fluorogenic substrate in the presence of a range of concentrations of 3j. […] Under such conditions, fit of the progress curves by nonlinear regression to Eq. 1 (see Materials and Methods) allows determination of kobs, the pseudo first-order rate constant for onset of inhibition. The kobs is effectively a composite of the on and off rates, so least linear squares regression of the calculated kobs values against inhibitor concentration allows determination of values of the pseudo first-order dissociation rate constant koff and the second-order association rate constant kon for the inhibitor-rPfSUB1 interaction, based respectively on values from the y-intercept and slope.
Progress curves of SERA4st1F-6R12 cleavage by rPfSUB1 were acquired at seven concentrations of inhibitor compound 3j over a period of 35 min, during which fluorescence increases in the absence of inhibitor were linear. The obtained progress curves (four independent replicates) were fit using GraphPad Prism 8.0 software to the following time-dependent inhibition equation: [P] = Vs∗t + ((Vi−Vs)/kobs)∗(1−exp(−kobs∗t)).
In the equation, Vi is the initial velocity, Vs is the final steady-state velocity, and kobs reflects the observed pseudo first-order rate of inactivation. The obtained kobs values were plotted against compound concentration using a linear least squares fit. All statistical analysis was carried out using GraphPad Prism 8.

**Q.** `CC(=O)NC(C(=O)NC(C(=O)NCC(=O)NC(C)B(O)O)C(C)C)C1CCCC1` (centres unmarked) [3j] was tested. Which “elastase IC50 relative to that for PfSUB1” value [1] did it give?
**A.** The value was > 100 fold.

**Q.** And the Ki [2]?
**A.** The Ki was 1 nM.

**Q.** And the “t1/2^off (bound half-life)” value ([2]; from koff)?
**A.** Its value is ~31 min and ~30 min.

**Q.** And the koff ([2]; read-out: koff, dissociation rate constant)?
**A.** The koff was 0.00037 s⁻¹.

**Q.** And the kon ([2]; read-out: kon, second-order association rate constant)?
**A.** Its kon is 360000 M⁻¹ s⁻¹.

— publication PMC8157947, “Peptidic boronic acids are potent cell-permeable inhibitors of the malaria parasite egress serine protease SUB1” (Proceedings of the National Academy of Sciences of the …, 2021)
